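How tested: cells in 96-well plates exposed to compound for 48 hours at five concentrations. At the GI50, growth is halved. Definition used: TGI = concentration required for complete inhibition of growth.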 Where a SMILES comes first, the peptide text is derived from it. The star is where a group is joined. Cbz = O=C(OCc1ccccc1)*; CH2Cl = ClC*
What follows are compounds tested on HT29 colon (assay: NCI anticancer screen, dose series, 48 h).

Question: For `O=C1C=CC(=O)c2cc3cc(CBr)ccc3cc21`, which GI50 is on record?
Answer: 2.62 µM

Question: And the TGI?
Answer: > 100 µM

Question: `CS(=O)(=O)CCNCc1nc(-c2ccc3ncnc(Nc4ccc(OCc5cccc(C(F)(F)F)c5)cc4)c3c2)cs1` was tested. Which GI50 did it give?
Answer: > 17.6 µM

Question: And the TGI?
Answer: > 25 µM

Question: Which TGI does the source give for `CC(C)CC(NC(=O)OCc1ccccc1)C(=O)NC(Cc1ccccc1)C(=O)CCl` (stereo not drawn) (Cbz-Leu-Phe-CH2Cl; configuration not given here) here?
Answer: 7.54 µM

Question: With `CCOC(=O)C(Cc1ccc(CCCC(=O)NCCC(=O)Nc2ccc3nc(C)sc3c2)cc1)C(=O)OCC` as the compound, how does the GI50 read?
Answer: > 64.2 µM

Question: And the TGI?
Answer: > 100 µM

Question: `NCCNc1c2c(c(NCCN)c3[nH]ccc13)C(=O)c1ccccc1C2=O` was tested. Which GI50 did it give?
Answer: 0.0527 µM

Question: And the TGI?
Answer: 0.634 µM

Question: Which GI50 does the source give for `CCOC(=O)Nc1ccc(-c2nc(-c3cccc(OCCN4CCOCC4)c3)c(-c3ccnc(Br)c3)[nH]2)cc1` here?
Answer: 2.9 µM

Question: What about the TGI of the same compound?
Answer: > 100 µM

Question: With `COc1ccc(-c2nn(-c3ccc(NC(=O)c4ccc(Cl)c(Cl)c4)cc3)cc2-c2ccncc2)cc1Cl` as the compound, how does the GI50 read?
Answer: 1.21 µM

Question: What about the TGI of the same compound?
Answer: 3.22 µM

Question: Which results are given for `C[C@@H]1CC[C@@H]2[C@@H]1[C@H](OC(=O)/C=C/c1ccccc1)[C@]1(C3CCCCC3)C[C@@H](OC(=O)CO)[C@@]2(C)O1`?
Answer: GI50: 2.89 µM; TGI: 8.05 µM

Question: With `CCCN1C(=O)N(CCC)C2C1NC(=S)N2/N=C/C=C/c1ccccc1OC` (stereo not given) as the compound, how does the GI50 read?
Answer: 0.386 µM

Question: And the TGI?
Answer: 17.8 µM

Question: How did the TGI turn out when `COc1cc2c(c(OC)c1OC)-c1ccc(SC)c(=O)cc1C(NC=O)CC2` (stereo not given) was run?
Answer: 1.1 µM

Question: How did the GI50 turn out when `CCSc1ncnc2c1ncn2C1OC(CO)C(O)C1O` (stereo not given) was run?
Answer: 0.229 µM

Question: What about the TGI of the same compound?
Answer: > 100 µM

Question: With `CC[C@H]1[C@@H]2C=C[C@@H]3[C@H]4C/C=C\C(=O)NCCC[C@@H]5NC(=O)/C(=C(O)/C=C/[C@@H]4C[C@@H]3[C@H]2C[C@H]1C)C5=O` as the compound, how does the GI50 read?
Answer: 1.73 µM

Question: What about the TGI of the same compound?
Answer: 3.31 µM

Question: How did the GI50 turn out when `CN1C(=O)N(C)C2C1NN=c1s/c(=C\c3ccc(Cl)cc3Cl)c(=O)n12` (stereo not given) was run?
Answer: 0.117 µM

Question: What about the TGI of the same compound?
Answer: > 100 µM

Question: How did the GI50 turn out when `Cc1ccc(NC(=O)CC2CC2)cc1-c1ccc(C(=O)NCC2CC2)cc1` was run?
Answer: > 25 µM

Question: And the TGI?
Answer: > 25 µM

Question: How did the GI50 turn out when `CNCC#Cc1c(F)ccc2c1/C(=C/c1[nH]ccc1OC)C(=O)N2` was run?
Answer: 0.133 µM

Question: What about the TGI of the same compound?
Answer: 1.82 µM

Question: With `Cn1cc(C2=C(c3cn(CCCCO)c4ccccc34)C(=O)NC2=O)c2ccccc21` as the compound, how does the GI50 read?
Answer: 8.3 µM

Question: And the TGI?
Answer: > 25 µM

The compounds below were run on SR leukemia (assay: NCI anticancer screen, dose series, 48 h).

Question: For `O=C1C=CC(=O)c2cc3cc(CBr)ccc3cc21`, which GI50 is on record?
Answer: 0.0371 µM

Question: And the TGI?
Answer: 0.0923 µM

Question: Which results are given for `CS(=O)(=O)CCNCc1nc(-c2ccc3ncnc(Nc4ccc(OCc5cccc(C(F)(F)F)c5)cc4)c3c2)cs1`?
Answer: GI50: > 22.2 µM; TGI: > 25 µM

Question: Which TGI does the source give for `CC(C)CC(NC(=O)OCc1ccccc1)C(=O)NC(Cc1ccccc1)C(=O)CCl` (stereo not drawn) (Cbz-Leu-Phe-CH2Cl; configuration not given here) here?
Answer: 4.66 µM

Question: Which results are given for `CCOC(=O)C(Cc1ccc(CCCC(=O)NCCC(=O)Nc2ccc3nc(C)sc3c2)cc1)C(=O)OCC`?
Answer: GI50: 50.8 µM; TGI: > 100 µM

Question: How did the GI50 turn out when `NCCNc1c2c(c(NCCN)c3[nH]ccc13)C(=O)c1ccccc1C2=O` was run?
Answer: 0.0527 µM

Question: What about the TGI of the same compound?
Answer: 0.334 µM

Question: Which results are given for `CCOC(=O)Nc1ccc(-c2nc(-c3cccc(OCCN4CCOCC4)c3)c(-c3ccnc(Br)c3)[nH]2)cc1`?
Answer: GI50: 2.74 µM; TGI: > 100 µM

Question: Which results are given for `COc1ccc(-c2nn(-c3ccc(NC(=O)c4ccc(Cl)c(Cl)c4)cc3)cc2-c2ccncc2)cc1Cl`?
Answer: GI50: 2.29 µM; TGI: > 50 µM

Question: With `C[C@@H]1CC[C@@H]2[C@@H]1[C@H](OC(=O)/C=C/c1ccccc1)[C@]1(C3CCCCC3)C[C@@H](OC(=O)CO)[C@@]2(C)O1` as the compound, how does the GI50 read?
Answer: 2.6 µM

Question: What about the TGI of the same compound?
Answer: 6.9 µM

Question: For `CCCN1C(=O)N(CCC)C2C1NC(=S)N2/N=C/C=C/c1ccccc1OC` (stereo not given), which GI50 is on record?
Answer: 0.326 µM

Question: And the TGI?
Answer: > 35.1 µM

Question: Which TGI does the source give for `COc1cc2c(c(OC)c1OC)-c1ccc(SC)c(=O)cc1C(NC=O)CC2` (stereo not given) here?
Answer: 36.6 µM

Question: Which GI50 does the source give for `CCSc1ncnc2c1ncn2C1OC(CO)C(O)C1O` (stereo not given) here?
Answer: 25.3 µM

Question: What about the TGI of the same compound?
Answer: > 100 µM

Question: Which results are given for `CC[C@H]1[C@@H]2C=C[C@@H]3[C@H]4C/C=C\C(=O)NCCC[C@@H]5NC(=O)/C(=C(O)/C=C/[C@@H]4C[C@@H]3[C@H]2C[C@H]1C)C5=O`?
Answer: GI50: 0.264 µM; TGI: 1.94 µM

Question: For `CN1C(=O)N(C)C2C1NN=c1s/c(=C\c3ccc(Cl)cc3Cl)c(=O)n12` (stereo not given), which GI50 is on record?
Answer: 0.0557 µM

Question: What about the TGI of the same compound?
Answer: > 100 µM

Question: For `Cc1ccc(NC(=O)CC2CC2)cc1-c1ccc(C(=O)NCC2CC2)cc1`, which GI50 is on record?
Answer: 13.5 µM

Question: What about the TGI of the same compound?
Answer: > 25 µM

Question: Which GI50 does the source give for `CNCC#Cc1c(F)ccc2c1/C(=C/c1[nH]ccc1OC)C(=O)N2` here?
Answer: 0.0715 µM

Question: And the TGI?
Answer: 0.513 µM

Question: Which results are given for `Cn1cc(C2=C(c3cn(CCCCO)c4ccccc34)C(=O)NC2=O)c2ccccc21`?
Answer: GI50: 6.05 µM; TGI: 21.4 µM

Each compound was assayed on MALME-3M melanoma (assay: NCI anticancer screen, dose series, 48 h).

Question: How did the GI50 turn out when `O=C1C=CC(=O)c2cc3cc(CBr)ccc3cc21` was run?
Answer: 3.1 µM

Question: What about the TGI of the same compound?
Answer: 29.3 µM

Question: Which GI50 does the source give for `CS(=O)(=O)CCNCc1nc(-c2ccc3ncnc(Nc4ccc(OCc5cccc(C(F)(F)F)c5)cc4)c3c2)cs1` here?
Answer: 14 µM

Question: What about the TGI of the same compound?
Answer: > 25 µM

Question: How did the TGI turn out when `CC(C)CC(NC(=O)OCc1ccccc1)C(=O)NC(Cc1ccccc1)C(=O)CCl` (stereo not drawn) (Cbz-Leu-Phe-CH2Cl; configuration not given here) was run?
Answer: 4.16 µM

Question: With `CCOC(=O)C(Cc1ccc(CCCC(=O)NCCC(=O)Nc2ccc3nc(C)sc3c2)cc1)C(=O)OCC` as the compound, how does the GI50 read?
Answer: 28.3 µM

Question: What about the TGI of the same compound?
Answer: > 84.4 µM

Question: Which GI50 does the source give for `NCCNc1c2c(c(NCCN)c3[nH]ccc13)C(=O)c1ccccc1C2=O` here?
Answer: 0.177 µM

Question: And the TGI?
Answer: 0.658 µM

Question: With `CCOC(=O)Nc1ccc(-c2nc(-c3cccc(OCCN4CCOCC4)c3)c(-c3ccnc(Br)c3)[nH]2)cc1` as the compound, how does the GI50 read?
Answer: 1.6 µM

Question: What about the TGI of the same compound?
Answer: 3.46 µM

Question: What does the source list for `COc1ccc(-c2nn(-c3ccc(NC(=O)c4ccc(Cl)c(Cl)c4)cc3)cc2-c2ccncc2)cc1Cl`?
Answer: GI50: 5.88 µM; TGI: > 50 µM

Question: What does the source list for `C[C@@H]1CC[C@@H]2[C@@H]1[C@H](OC(=O)/C=C/c1ccccc1)[C@]1(C3CCCCC3)C[C@@H](OC(=O)CO)[C@@]2(C)O1`?
Answer: GI50: 2.48 µM; TGI: 7.21 µM

From PubChem BioAssay (NCI)
